The source of these data is patent publication US7511036B2, “Dihydrothiazine prodrugs of thiazolium agents” (Synvista Therapeutics, Inc., priority 2003, dated 2009).

Molecules are shown by their SMILES. Structures can show the parent of a compound that is named as a salt.

Series [1] can be described thus: Conversion of dihydrothiazine to thiazolium chloride under acidic conditions. In kind it is physicochemical. On the procedure:
The following experiment provides evidence that thiazine structures related to compound la can be converted under acidic conditions to thiazolium structures, and thus can serve as pro-drug forms of thiazolium agents.
Compound Ia (2.48 mmol, 0.620 g) was weighed into a 100 mL round bottom flask equipped with magnetic stir bar. Methanol (40 mL) was added, and the solution was stirred until all solid was dissolved. Aqueous hydrochloric acid was added (1N, 3.968 mmol, 4.0 mL) and the reaction solution stirred at ambient temperature for 48 hours. The methanol was removed in vacuo, and the residue was diluted with 25 mL of distilled water. The aqueous layer was extracted with methyl t-butyl ether (2×20 mL). The aqueous layer was concentrated to dryness in vacuo and the residue was crystallized with acetonitrile, methyl-t-butyl-ether (1:1). The crystals were collected via filtration to give 598 mg (90% yield) of 4,5-dimethyl-3-(2-oxo-2-phenylethyl)-thiazolium chloride. […]
In a 15 mL round bottom flask, stirred with a magnetic stirrer, was charged 36 mg (0.16 mmol) of compound Ib (prepared as described by Thornalley et al., Biochemical Pharmacology, vol. 57,pp 303-308, 1999), 2 mL of 1% hydrochloric acid and 2 mL of Ethyl Acetate. Since there was no reaction as monitored by HPLC, 2 mL of 5N Hydrochloric acid, and 2 mL of methanol was added, and the flask was heated to 35° C. […]

The test system of the next series is Type IV collagen. Description: In situ hybridization studies, Type IV collagen expression. Type of series: in vivo. The source says: (§1) Cardiovascular risk correlates more closely with the systolic and the pulse pressure than with the diastolic pressure. In diabetic patients, the cardiovascular risk profile of diabetic patients is strongly correlated to duration of diabetes, glycemic control and blood pressure. Structural matrix proteins contribute to the function of vessels and the heart, and changes in the physical behavior of cardiovascular walls are believed to be important determinants of circulatory function. In elderly individuals, the loss of compliance in the aorta leads to systolic hypertension and isolated systolic hypertension, which in turn expands the arterial wall and thereby diminishes the dynamic range of elasticity. […] These studies indicate that prodrugs of such thiazolium compounds should have a similar effect.

For series [2], the system named is Rhesus monkeys. To be noted: pilocarpine-stimulated accommodation; see the '112 application; cited from earlier work.
Series [3] concerns Rhesus monkeys. To be noted: drug treated vs. control eye, baseline and pilocarpine-stimulated; see the '112 application; cited from earlier work.
The next series relates to TGFbeta. Description: In situ hybridization studies, TGFbeta expression. Type of series: in vivo.
Excerpt: as §1

A further series has as its system dog model for diabetes. Description: Dog model for diabetes, indicators of ventricular elasticity. Type of series: in vivo. Particulars: indicator of ventricular elasticity.
Excerpt: as §1

For series [4], the system named is elderly patients with pulse pressures greater than 60 mm Hg. Kind of series: Phase IIa clinical trial. In kind it is in vivo, human. To be noted: for left ventricular mass: Phase IIa clinical trial, echocardiography.
Excerpt: as §1
Pulse pressure is the difference between systolic and diastolic blood pressure. In a young human, systolic pressure is typically 120 mm Hg and diastolic pressure is 80 mm Hg, resulting in a pulse pressure of 40 mm Hg. With age, in many individuals pulse pressure increases, largely due to the increase in systolic pressure that results from stiff vessel disease. In individuals with pulse pressure greater than 60 mm Hg there is an increased risk of death from cardiovascular morbidities. […] This decrease in pulse pressure was believed to be due primarily to the effect of the agent on lowering the systolic blood pressure.
When the heart pumps blood into the vascular system, the ability of the arteries to expand helps to push blood through the body. When arteries become stiff, as they do in the natural process of aging, the ability of the arteries to expand is diminished which also has consequences for the heart. The heart has to work harder to pump the blood into the stiff arteries, and it eventually hypertrophies (enlarges in size) to accomplish this. A hypertrophied heart is an inefficient pump, and is one of the disorders that leads to congestive heart failure. […] Such a compound can be provided by administration of an N-formyl thiazine compound, (i.e., 2-hydroxy-5,6-dimethyl-2-phenyl-2,3-dihydro-(1,4)thiazine-4-carbaldehyde) and conversion of the compound under, for example, acidic conditions in the stomach, to the corresponding thiazolium salt. The potential clinical benefit of this is to lessen the effort that the heart must expend to push blood throughout the body. The effect is also believed to contribute to preventing hypertrophy and subsequent inefficiency of the heart, which inefficiency would contribute to congestive heart failure.
Atherosclerosis is a disease that involves deposition of blood lipids in plaque in the arteries throughout the body. In coronary arteries, accumulation of plaque progressively leads to reduced coronary flow, with occlusion of the arteries causing focal death of cardiac tissue (myocardial infarction, heart attack). If the amount of tissue that dies is large enough, death ensues. […] Reducing local deposits of plaque should eventually lessen the risk of myocardial infarction and death due to heart attacks.

For series [5], the system named is collagen in cardiovascular tissues. Kind of series: Mass of collagen in cardiovascular tissues after treatment. To be noted: in vivo.
Excerpt: as §1

Turning to `O=CN1C=CSC(O)(c2ccccc2)C1` (centres unmarked) [Ib, 2-Hydroxy-2-Phenyl-2,3-Dihydro-(1,4)thiazine-4-carbaldehyde], the “conversion to thiazolium under acidic conditions” value in series [1] (1% hydrochloric acid and ethyl acetate, monitored by HPLC) is “no reaction”. The “time until the conversion to thiazolium chloride was finished” value in series [1] (after adding 5N hydrochloric acid and methanol, 35° C., HPLC) is given as “about 15 h”.

As to `Cc1sc[n+](CC(=O)c2ccccc2)c1C` [3-[2-phenyl-2-oxoethyl]-4,5-dimethyl-thiazolium salt], the “expression of Type IV collagen” value in the series with Type IV collagen was “reduces the expression”. Moreover, the improvement in accommodation entry in the series on Rhesus monkeys [2] is recorded as “Improvement in accommodation has been illustrated”. Besides, in the series with Rhesus monkeys [3], the “improvement in fluid outflow facility (ophthalmologic function)” value was “improvement has been illustrated”. Further, the “expression of TGFbeta” value in the series with TGFbeta is on record as “reduces the expression”. In the series with dog model for diabetes, the end diastolic pressure result is “returned to a value at about the mid-point between the disease impaired value and the value for control dogs”; the end diastolic volume entry is “returned to a value at about the mid-point between the disease impaired value and the value for control dogs”. Besides, the left ventricular mass entry in series [4] was “reduction of left ventricular mass”. Besides, the left ventricular mass result in series [4] (listed as 3-[2-phenyl-2-oxoethyl]-4,5-dimethyl-thiazolium chloride salt) is reported as “reduce left ventricular mass”. In addition, the “stiffness of arteries (ratio of stroke volume (ml) to pulse pressure (mm Hg))” value in series [4] (Phase IIa clinical trials) is “reverse the stiffness of arteries”. In addition, the “amount of circulating triglycerides (lipids)” value in series [4] (Phase IIa trial) is recorded as “increased the amount of circulating triglycerides”. In series [4] (Phase IIa trial, elderly patients with pulse pressures greater than 60 mm Hg, statistically significant), the pulse pressure entry is “reduced pulse pressure”. For the same molecule, the “mass of collagen in cardiovascular tissues” value in series [5] was “reduction in the mass of collagen”.
